Measured values as given in patent US12551479B2, “Acyl-protein thioesterase inhibitor for the treatment and/or prevention of Huntington's disease” (UNIVERSITÉ GRENOBLE ALPES, priority 2019, dated 2026).

Assays:
Hdh^CAG/+ mice = assay: Post-mortem synapse density (adjacent PSD95 and Vglut-1 spots) after 28 days of treatment; assay type: in vivo, mouse
Description: We note that there is a significant reduction in this number of adjacent spots in untreated Hdh^CAG/+ mice.

[1] = test system: brain palmitoylated proteins; assay: ABE (Acyl-Biotin-Exchange) assay on brain lysate; assay type: in vivo, mice
Description: In FIG. 4D, the graphic representation of the experiment set up to test the efficacy of the molecule to increase the level of palmitoylation in the brain 30 minutes after injection can be visualized. […] Brains were mechanically lysed in ice-cold buffer (1% IGEPAL CA-630; 50 mM Tris-HCl pH 7.5, 150 mM NaCl, 10% glycerol) containing 1:100 protease inhibitor cocktail (Sigma Aldrich P8340), 1 mM PMSF, 1:200 phosphatase inhibitor (Sigma Aldrich P5726), and 50 mM NEM (Sigma Aldrich E3876) to block free cystein. Brain lysates were rotated at 4° C. for 30 minutes before insoluble material was removed by centrifugation at 15.000 rpm for 10 minutes. Lysates were precleared by incubation with Dynabeads M-280 Streptavidin (Invitrogen 112.05D) for 30 minutes at 4° C. on the wheel. Proteins from precleared samples were then precipitated using chloroform-methanol assay. Each pellet was divided and resuspended in +HAM (2:3 of the pellet) (lysis buffer containing 1 mM HAM (Sigma 46780-4)) or −HAM (1:3 of the pellet) during 1 hour at room temperature on the wheel. Proteins were precipitated with chloroform-methanol method and the pellets were resuspended in Biotin-BMCC buffer (lysis buffer with 5 μM EZ-Link™ Biotin-BMCC (Thermo Fisher 21900)) for 1 hour at room temperature on the wheel. […]

[2] = test system: WT and Hdh^CAG/+ corticostriatal network; assay: Synapse density (adjacent SYP and PSD95 spots) in microfluidic corticostriatal network; assay type: cell-based, mouse; settings: 1 μM daily
Description: In FIG. 3H, we can see the recording area that was chosen for the assessment of synapse density by quantifying the number of synaptophysin (SYP) spots, a presynaptic marker, and the number of PSD95 spots, a postsynaptic marker. FIG. 3I testifies that in the Hdh^CAG/+ microfluidic network, the number of synapses is decreased in the microfluidic devices.
(§1) For striatal StHdh cells, acute treatment was performed at 10 μM for 1 hour before and during the acquisition time. For neurons within the microchambers, treatments were started at DIV2 until DIV12 every day at 1 μM in each compartment of the microfluidic device.
The inventors then assessed synapse density by quantifying the number of synaptophysin spots (presynaptic marker, SYP) adjacent to PSD95 spots (postsynaptic marker) within synaptic chamber of the microfluidic device using high-resolution Airyscan confocal microscopy (FIG. 3H). In Hdh^CAG/+ network, the number of synapses is decreased in the microfluidic devices (FIG. 3I). […] However, this was not significant.

[3] = test system: mouse cortical neuronal cells; assay: MTT toxicity assay; assay type: cell-based
Description: Toxicity was assessed using the tetrazolium salt MTT assay. The cortical culture was treated every day as previously described. After treatment, a solution of MTT (Life M6494) was added to the culture medium at 1.2 mM and incubated for 3 hours. The reaction was terminated by adding the solvent solution (4 mM HCl, 0.1% NP40 in isopropanol). The absorbance value was measured at 595 and 690 nm.

StHdh^Q111/Q111 cells = assay: RUSH system: GPI-SBP-mCherry trafficking from endoplasmic reticulum to Golgi and plasma membrane; assay type: cell-based, mouse; settings: StHdh^Q111/Q111 cells treated 1 hour with 10 μM
Description: The RUSH plasmid (Boncompain et al., 2012) is a bicistronic plasmid (SEQ ID NO: 2) allowing the expression of two parts of the system: the reticulum-specific anchor (KDEL-streptavidin), and the reporter part (GPI-SBP-mCh). The addition of biotin in the extracellular medium (40 μM) induces the unhooking of the reporter part of the anchor, thus allowing to follow the intracellular trafficking in a synchronized way within a cell population from the endoplasmic reticulum.
as §1
The inventors used the Retention Using Selective Hooks (RUSH) system to study intracellular dynamics from the ER to the plasma membrane in Huntington's disease condition (FIG. 1A). RUSH allows tracking the synchronous release of a reporter molecule from specific intracellular compartments. In the present experiment, the inventors followed the release of glycosylphosphatidylinositol (GPI)-anchored fluorescence protein mCherry, and fused to streptavidin-binding peptide (SBP) that was retained into the ER compartment by the interaction with a “hook” protein composed of the KDEL motif fused to streptavidin. In the absence of biotin, the GPI-SBP-mCherry localizes at the ER (FIG. 1A). Addition of biotin to the cells expressing GPI-SBP-mCherry and KDEL-streptavidin causes a synchronous release of the GPI-SBP-mCherry reporter from the hook which then migrates to the Golgi apparatus and later to the plasma membrane.
To study these dynamics in the context of Huntington's disease, the inventors transfected the GPI-SBP-mCherry-KDEL-streptavidin construct as shown in SEQ ID NO:2 into immortalized striatal cells from Hdh^Q111/Q111 and Hdh^Q7/Q7 mice, referred to as StHdh^Q111/Q111 and StHdh^Q7/Q7 cells respectively. They then monitored GPI-SBP-mCherry trafficking by real-time imaging for 90 minutes. To assess intracellular trafficking dynamics, they quantified the kinetics of appearance and disappearance of mCherry fluorescence in the Golgi apparatus over time (FIGS. 1B and C). Shortly after biotin addition, GPI leaves the ER and moves to the Golgi apparatus. The inventors quantified fluorescence at the Golgi and observed that in StHdh^Q7/Q7 cells, the peak fluorescence was at 16.6 minutes, whereas it was delayed to 23.6 minutes in StHdh^Q111/Q111 cells (FIG. 1B). Their observations indicate a reduced trafficking of GPI from the ER to the Golgi apparatus as well as prolonged retention of GPI in the Golgi as evidenced by a longer period of GPI fluorescence in the Golgi apparatus.

O=C(CN1CCN(C(=O)c2ccco2)CC1)Nc1cc(C(F)(F)F)ccc1Cl [ML-348]
synaptic density, number of PSD95 and Vglut-1 adjacent dots per 100 μm^2 (Hdh^CAG/+ mice): restores synaptic density to a level approximately equal to that of untreated wild-type mice
palmitoylation in brain (ABE, +HAM vs −HAM) ([1]; HdH^CAG/+ mice, 28 days of treatment, 0.3 mg/kg/day subcutaneous osmotic pump): increase palmitoylation
level of palmitoylation in brain lysates ([1]; mice injected with 0.3 mg/kg, 30 minutes after injection): increased
number of synapses (adjacent SYP and PSD95 spots) ([2]; Hdh^CAG/+ network): restored the number of synapses
number of synapses (adjacent SYP and PSD95 spots) ([2]; wild-type network, not statistically significant): slightly reduced synapse connectivity
cell viability (MTT) ([3]; 100 nM, 1 μM or 10 μM): no effect
toxicity (MTT) ([3]; 1 μM, for 12 days): no toxicity
toxicity (MTT) ([3]; 100 μM, over 48 hours): toxic
toxicity (MTT) ([3]; wild-type cortical cultures, 1 μM for 10 days): no toxicity
time after biotin addition for the appearance of the fluorescence peak in the Golgi (StHdh^Q111/Q111 cells; without treatment 23.2-23.3 min, StHdh^Q7/Q7 16.6 min): 18.9 min
time for fluorescence to leave the Golgi apparatus (retention time in the Golgi) (StHdh^Q111/Q111 cells; without treatment 24-25.4 min, wild-type cells 15.1 min): 15.1 min
